SMILES strings stand for the structures. pIC50: −log10 of the molar value. Where two headings read alike, the source gives them in different places. *1 amine or outer side, *2 acyl side, *3 side chain or, on linkers, in order; H or OH if unused. Where a SMILES comes first, the peptide text is derived from it. [ ]: non-standard residue; d: D form. X3 = O=C([C@H](CC/C=C/[N+](=O)[O-])N[*:1])[*:2]; Phe(2,4-Cl2) = N[C@@H](Cc1ccc(Cl)cc1Cl)C(=O)O; X1 = CN(C)C(=O)/C=C/CC[C@H](N[*:1])C(=O)[*:2]; X4 = O=C([C@@H]1C(O)c2ccccc2CN1[*:1])[*:2]; hCit = NC(=O)NCCCC[C@H](N)C(=O)O; Aib = CC(C)(N)C(=O)O

These results are taken from patent US8471063B2, “Michael systems as transglutaminase inhibitors” (Zedira GmbH, priority 2006, dated 2013).

What all share (type): biochemical
For one assay, the target named is T1, TG3 (Homo sapiens, UniProt Q08188).
T1 sequence (Q08188 1-693): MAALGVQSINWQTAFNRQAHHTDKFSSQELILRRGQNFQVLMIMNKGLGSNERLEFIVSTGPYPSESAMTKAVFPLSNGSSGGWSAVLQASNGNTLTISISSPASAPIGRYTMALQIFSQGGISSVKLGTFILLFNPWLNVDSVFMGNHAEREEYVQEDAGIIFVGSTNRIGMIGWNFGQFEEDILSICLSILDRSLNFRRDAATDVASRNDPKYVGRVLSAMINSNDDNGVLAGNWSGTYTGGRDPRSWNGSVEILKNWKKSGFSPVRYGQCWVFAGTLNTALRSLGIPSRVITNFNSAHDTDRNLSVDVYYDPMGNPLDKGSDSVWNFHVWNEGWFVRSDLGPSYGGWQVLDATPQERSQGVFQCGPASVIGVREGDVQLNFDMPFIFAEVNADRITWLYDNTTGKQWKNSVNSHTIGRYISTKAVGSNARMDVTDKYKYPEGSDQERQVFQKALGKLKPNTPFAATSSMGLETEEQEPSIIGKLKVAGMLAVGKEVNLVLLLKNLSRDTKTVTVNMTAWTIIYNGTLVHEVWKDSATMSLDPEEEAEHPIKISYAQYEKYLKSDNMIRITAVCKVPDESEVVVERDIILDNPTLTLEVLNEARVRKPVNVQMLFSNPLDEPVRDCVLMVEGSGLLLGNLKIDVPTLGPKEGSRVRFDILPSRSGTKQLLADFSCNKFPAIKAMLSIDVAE
Nature of the assay: Transglutaminase inhibition, IC50 at TG3.

Another assay has as its target T2, TG6 (Homo sapiens, UniProt O95932).
T2 construct: His6 (N); made in house; host or cells: E. coli BL21 (DE3)
T2 sequence (O95932 1-706): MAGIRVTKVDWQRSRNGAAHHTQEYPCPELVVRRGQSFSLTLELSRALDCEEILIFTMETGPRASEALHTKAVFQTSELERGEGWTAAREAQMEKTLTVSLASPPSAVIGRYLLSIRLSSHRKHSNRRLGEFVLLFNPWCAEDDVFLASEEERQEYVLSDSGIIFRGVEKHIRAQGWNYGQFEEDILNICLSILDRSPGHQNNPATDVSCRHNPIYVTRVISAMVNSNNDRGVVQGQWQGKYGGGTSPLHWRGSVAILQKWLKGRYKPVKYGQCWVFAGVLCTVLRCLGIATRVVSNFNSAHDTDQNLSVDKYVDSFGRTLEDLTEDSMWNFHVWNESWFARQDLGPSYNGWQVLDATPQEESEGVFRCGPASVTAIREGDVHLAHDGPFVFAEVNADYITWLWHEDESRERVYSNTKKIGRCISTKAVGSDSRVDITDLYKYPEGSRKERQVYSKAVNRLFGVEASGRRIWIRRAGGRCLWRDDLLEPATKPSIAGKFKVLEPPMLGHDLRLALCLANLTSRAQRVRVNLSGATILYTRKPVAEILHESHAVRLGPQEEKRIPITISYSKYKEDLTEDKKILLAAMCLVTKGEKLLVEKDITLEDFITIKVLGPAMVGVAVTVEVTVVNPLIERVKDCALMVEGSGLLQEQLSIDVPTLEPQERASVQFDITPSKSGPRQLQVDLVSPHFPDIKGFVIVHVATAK
Nature of the assay: Transglutaminase inhibition, IC50 at TG6. The protocol:
(§1) The genes encoding for TG6 and TG7 were amplified from TG6-cDNA and TG7-cDNA, respectively, with PCR according to standard procedures (both state-of-the-art according to U.S. Pat. No. 7,052,890). Through the primers used a NdeI restriction site and six histidine codons were inserted at the 5′ end and a BgIII restriction site (TG6) and a HindIII restriction site (TG7) at the 3′ end.
(§2) The Tg6 PCR product was treated with the restriction endonucleases NdeI and BgIII. In the NdeI and BamH I restricted vector pET 3a was inserted. The Tg7 PCR product was treated with the restriction endonucleases NdeI and HindIII. and in the likewise restricted vector pET 28b was inserted.
(§3) The E. coli strain BL21 (DE3) (Novagen, Darmstadt) was transformed with the obtained plasmids. A culture of one strain each was induced with IPTG and harvested. After cell disruption under high pressure homogenisation the disrupts were centrifuged and the supernatants were purified via metal ion affinity chromatography on HiTrap chelating HP columns (GE-Helathcare). The purified proteins TG6 and TG7 were analyzed by SDS-PAGE with Coomassie staining. All procedures used for the production of TG6 and TG7 are well known to the one skilled in the art.

Another assay concerns the target T3, TG7 (Homo sapiens, UniProt Q96PF1).
T3 construct: His6 (N); made in house; host or cells: E. coli BL21 (DE3)
T3 sequence (Q96PF1 1-710): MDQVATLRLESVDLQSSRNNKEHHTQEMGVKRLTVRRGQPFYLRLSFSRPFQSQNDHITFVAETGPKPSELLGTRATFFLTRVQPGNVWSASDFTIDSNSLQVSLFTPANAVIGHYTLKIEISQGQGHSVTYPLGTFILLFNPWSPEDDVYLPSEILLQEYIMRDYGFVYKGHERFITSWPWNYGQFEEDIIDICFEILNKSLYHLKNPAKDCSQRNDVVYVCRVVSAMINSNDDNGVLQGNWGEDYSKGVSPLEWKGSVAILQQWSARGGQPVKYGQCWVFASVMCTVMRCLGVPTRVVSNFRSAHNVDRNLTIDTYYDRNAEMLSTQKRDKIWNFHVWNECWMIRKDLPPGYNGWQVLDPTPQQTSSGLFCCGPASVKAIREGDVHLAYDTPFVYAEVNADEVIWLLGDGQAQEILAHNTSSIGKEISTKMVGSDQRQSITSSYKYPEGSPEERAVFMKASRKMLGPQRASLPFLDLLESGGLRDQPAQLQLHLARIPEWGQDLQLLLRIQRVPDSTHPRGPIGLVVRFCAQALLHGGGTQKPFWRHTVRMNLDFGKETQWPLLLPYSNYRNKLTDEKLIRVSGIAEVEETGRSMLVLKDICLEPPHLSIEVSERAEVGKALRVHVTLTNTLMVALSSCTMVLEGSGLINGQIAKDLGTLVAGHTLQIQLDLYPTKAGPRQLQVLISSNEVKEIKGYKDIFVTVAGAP
Nature of the assay: Transglutaminase inhibition, IC50 at TG7. The protocol:
as §1, §2, §3

The mark [1] stands for this setting: Table 2, read-out: IC50 value [TG3].
Setting [2] is: Table 2, read-out: IC50 value [TG6].
[3] abbreviates: Table 2, read-out: IC50 value [TG7].

As to `CC[C@H](C)[C@H](NC(=O)[C@H](CCC(N)=O)NC(=O)[C@H](CC/C=C/C(=O)N(C)C)NC(=O)[C@H](Cc1ccc(Cl)cc1Cl)NC(=O)C(C)(C)NC(C)=O)C(=O)N[C@H](C(=O)O)C(C)C` [Compound 3.2.13] (Ac-[Aib][Phe(2,4-Cl2)][X1]QIV-OH), the pIC50 on TG3 (setting [1]) was less than 4.00; on TG6 (setting [2]), 5.40; at TG7 (setting [3]) it was 4.34.
Take `CC(=O)N[C@@H](CCC(N)=O)C(=O)N[C@@H](CCC(N)=O)C(=O)N[C@@H](CC/C=C/[N+](=O)[O-])C(=O)N[C@H](C(=O)N[C@@H](CCCCNC(N)=O)C(=O)N[C@@H](CCC(N)=O)C(=O)N1Cc2ccccc2C(O)[C@H]1C(N)=O)C(C)C` (stereo partly drawn) [Compound 3.2.14] (Ac-QQ[X3]V[hCit]Q[X4]-NH2): the pIC50 was 5.64 at TG3 (setting [1]), less than 4.00 at TG6 (setting [2]) and less than 4.00 at TG7 (setting [3]).
Consider `CC(=O)N[C@@H](CCl)C(=O)N1CSC[C@H]1C(=O)N[C@@H](CC/C=C/C(=O)c1ccc([N+](=O)[O-])cc1)C(=O)N[C@@H](CCC(N)=O)C(=O)N[C@@H](CC1CCCCC1)C(=O)Nc1ccc(C(=O)O)cc1` [Compound 3.2.16], for which the pIC50 against TG3 is 4.32; at TG6, 5.70; against TG7 it was 5.47.

For orientation: pIC50 means the negative decadic logarithm of the IC50, by convention in mol/L.
